pIC50: −log10 of the molar value. Several values for one entry are separate records, joined by “and”; a condition that tells them apart may be missing. Equal entries are not always repeated. Where two headings read alike, the source gives them in different places.
What was measured:
Human mTOR (FLAG-TOR) = Human mTOR (FLAG-TOR) (Homo sapiens, UniProt P42345); test: mTOR kinase assay (DELFIA format, purified enzyme); assay type: biochemical; settings: read-out: IC50 mTOR
[1] = tested on: human breast MDA-MB-361 tumor cell line; test: In vitro cell culture growth assay (MTS), MDA-MB-361; assay type: cell-based; settings: Homo sapiens, MDA-MB-361, 72 h, MTS cell growth assay, three days after drug treatment, read-out: IC50 MDA-MB-361
[2] = tested on: human prostate PC3-mm2 tumor cell line; test: In vitro cell culture growth assay (MTS), PC3-mm2; assay type: cell-based; settings: Homo sapiens, PC3MM2, 72 h, MTS cell growth assay, three days after drug treatment, read-out: IC50 PC3-mm2
PI3K-α = PI3K-α (Homo sapiens, UniProt P42336); test: PI3K-alpha fluorescence polarization assay; settings: read-out: IC50 PI3Kα
PI3K-α, sequence (P42336 whole entry, species assumed): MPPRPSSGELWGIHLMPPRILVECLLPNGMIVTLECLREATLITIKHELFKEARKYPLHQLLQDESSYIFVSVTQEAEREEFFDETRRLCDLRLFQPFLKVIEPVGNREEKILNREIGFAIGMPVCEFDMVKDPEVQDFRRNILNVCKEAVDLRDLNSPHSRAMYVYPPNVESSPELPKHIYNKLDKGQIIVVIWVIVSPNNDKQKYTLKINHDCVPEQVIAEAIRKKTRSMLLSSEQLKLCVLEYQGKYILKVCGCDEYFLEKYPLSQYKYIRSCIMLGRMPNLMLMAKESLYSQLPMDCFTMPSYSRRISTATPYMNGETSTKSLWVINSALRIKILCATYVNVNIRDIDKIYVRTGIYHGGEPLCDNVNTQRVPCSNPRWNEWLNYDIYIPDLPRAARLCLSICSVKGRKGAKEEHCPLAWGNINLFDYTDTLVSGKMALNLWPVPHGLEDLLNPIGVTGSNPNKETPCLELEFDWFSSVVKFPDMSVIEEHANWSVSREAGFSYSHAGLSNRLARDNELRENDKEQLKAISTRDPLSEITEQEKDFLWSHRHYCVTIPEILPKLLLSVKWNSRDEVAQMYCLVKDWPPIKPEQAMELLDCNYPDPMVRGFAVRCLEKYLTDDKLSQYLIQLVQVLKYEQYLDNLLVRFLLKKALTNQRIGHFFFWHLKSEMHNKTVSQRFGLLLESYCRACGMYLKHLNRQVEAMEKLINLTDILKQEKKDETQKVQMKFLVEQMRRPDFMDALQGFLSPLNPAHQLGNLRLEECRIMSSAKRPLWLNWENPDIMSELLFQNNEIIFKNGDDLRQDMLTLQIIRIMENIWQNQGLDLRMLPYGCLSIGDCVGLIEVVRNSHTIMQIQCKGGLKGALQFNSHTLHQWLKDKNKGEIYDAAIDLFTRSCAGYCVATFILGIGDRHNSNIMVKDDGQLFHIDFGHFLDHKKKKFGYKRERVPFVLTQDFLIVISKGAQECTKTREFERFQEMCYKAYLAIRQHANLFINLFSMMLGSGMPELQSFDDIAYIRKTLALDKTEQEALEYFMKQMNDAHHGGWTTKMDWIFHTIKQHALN
PI3K-α, sequence (P27986 whole entry partner, species assumed): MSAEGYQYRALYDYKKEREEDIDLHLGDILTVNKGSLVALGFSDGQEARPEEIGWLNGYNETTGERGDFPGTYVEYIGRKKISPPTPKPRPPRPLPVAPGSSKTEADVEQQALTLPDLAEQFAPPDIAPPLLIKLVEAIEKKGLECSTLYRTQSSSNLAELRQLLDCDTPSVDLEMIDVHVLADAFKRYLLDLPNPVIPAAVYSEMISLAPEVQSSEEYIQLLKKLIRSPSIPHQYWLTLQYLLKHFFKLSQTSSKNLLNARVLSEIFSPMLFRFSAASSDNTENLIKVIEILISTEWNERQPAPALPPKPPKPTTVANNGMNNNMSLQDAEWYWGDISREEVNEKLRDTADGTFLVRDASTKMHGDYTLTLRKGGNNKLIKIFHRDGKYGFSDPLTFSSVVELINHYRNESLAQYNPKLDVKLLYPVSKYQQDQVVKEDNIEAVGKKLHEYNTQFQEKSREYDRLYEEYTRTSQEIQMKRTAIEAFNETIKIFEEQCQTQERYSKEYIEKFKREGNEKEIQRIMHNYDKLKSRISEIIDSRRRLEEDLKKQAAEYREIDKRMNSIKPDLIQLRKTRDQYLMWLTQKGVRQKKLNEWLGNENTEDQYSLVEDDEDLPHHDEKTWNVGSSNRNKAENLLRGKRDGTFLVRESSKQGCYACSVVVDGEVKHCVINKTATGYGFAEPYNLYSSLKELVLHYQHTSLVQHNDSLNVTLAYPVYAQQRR

PI3K-γ = PI3K-γ (Homo sapiens, UniProt P48736); test: PI3K-gamma fluorescence polarization assay; settings: read-out: IC50 PI3Kγ
PI3K-γ, sequence (P48736 whole entry, species assumed): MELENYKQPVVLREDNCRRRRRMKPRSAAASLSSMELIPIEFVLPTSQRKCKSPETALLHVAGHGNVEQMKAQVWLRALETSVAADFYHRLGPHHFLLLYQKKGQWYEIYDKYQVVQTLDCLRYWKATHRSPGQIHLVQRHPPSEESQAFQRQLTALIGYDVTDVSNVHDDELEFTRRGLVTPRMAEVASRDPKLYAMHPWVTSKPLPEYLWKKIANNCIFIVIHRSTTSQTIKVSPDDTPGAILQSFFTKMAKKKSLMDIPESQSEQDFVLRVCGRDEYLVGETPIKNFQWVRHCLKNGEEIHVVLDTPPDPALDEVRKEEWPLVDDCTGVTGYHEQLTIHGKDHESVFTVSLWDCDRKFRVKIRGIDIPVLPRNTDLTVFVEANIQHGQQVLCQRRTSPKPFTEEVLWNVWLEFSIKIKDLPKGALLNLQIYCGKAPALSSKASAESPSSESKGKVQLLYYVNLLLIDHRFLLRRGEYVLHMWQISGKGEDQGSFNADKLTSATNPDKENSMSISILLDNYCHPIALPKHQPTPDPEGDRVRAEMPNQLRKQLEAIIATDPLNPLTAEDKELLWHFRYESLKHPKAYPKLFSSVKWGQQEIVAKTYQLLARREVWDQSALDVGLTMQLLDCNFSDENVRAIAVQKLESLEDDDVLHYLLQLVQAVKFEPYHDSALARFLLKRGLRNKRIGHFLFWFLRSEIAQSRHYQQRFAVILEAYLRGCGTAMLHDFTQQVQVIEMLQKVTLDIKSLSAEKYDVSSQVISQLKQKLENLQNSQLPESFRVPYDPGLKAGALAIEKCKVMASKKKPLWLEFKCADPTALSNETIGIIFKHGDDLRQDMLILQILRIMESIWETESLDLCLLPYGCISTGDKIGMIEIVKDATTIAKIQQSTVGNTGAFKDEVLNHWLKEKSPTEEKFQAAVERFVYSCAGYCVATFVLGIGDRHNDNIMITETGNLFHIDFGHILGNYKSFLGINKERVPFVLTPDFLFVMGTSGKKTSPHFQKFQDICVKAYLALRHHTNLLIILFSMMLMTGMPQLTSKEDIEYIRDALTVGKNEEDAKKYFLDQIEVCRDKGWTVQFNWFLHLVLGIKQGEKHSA

Human mTOR (FLAG-TOR), sequence (P42345 1360-2549 limits assumed): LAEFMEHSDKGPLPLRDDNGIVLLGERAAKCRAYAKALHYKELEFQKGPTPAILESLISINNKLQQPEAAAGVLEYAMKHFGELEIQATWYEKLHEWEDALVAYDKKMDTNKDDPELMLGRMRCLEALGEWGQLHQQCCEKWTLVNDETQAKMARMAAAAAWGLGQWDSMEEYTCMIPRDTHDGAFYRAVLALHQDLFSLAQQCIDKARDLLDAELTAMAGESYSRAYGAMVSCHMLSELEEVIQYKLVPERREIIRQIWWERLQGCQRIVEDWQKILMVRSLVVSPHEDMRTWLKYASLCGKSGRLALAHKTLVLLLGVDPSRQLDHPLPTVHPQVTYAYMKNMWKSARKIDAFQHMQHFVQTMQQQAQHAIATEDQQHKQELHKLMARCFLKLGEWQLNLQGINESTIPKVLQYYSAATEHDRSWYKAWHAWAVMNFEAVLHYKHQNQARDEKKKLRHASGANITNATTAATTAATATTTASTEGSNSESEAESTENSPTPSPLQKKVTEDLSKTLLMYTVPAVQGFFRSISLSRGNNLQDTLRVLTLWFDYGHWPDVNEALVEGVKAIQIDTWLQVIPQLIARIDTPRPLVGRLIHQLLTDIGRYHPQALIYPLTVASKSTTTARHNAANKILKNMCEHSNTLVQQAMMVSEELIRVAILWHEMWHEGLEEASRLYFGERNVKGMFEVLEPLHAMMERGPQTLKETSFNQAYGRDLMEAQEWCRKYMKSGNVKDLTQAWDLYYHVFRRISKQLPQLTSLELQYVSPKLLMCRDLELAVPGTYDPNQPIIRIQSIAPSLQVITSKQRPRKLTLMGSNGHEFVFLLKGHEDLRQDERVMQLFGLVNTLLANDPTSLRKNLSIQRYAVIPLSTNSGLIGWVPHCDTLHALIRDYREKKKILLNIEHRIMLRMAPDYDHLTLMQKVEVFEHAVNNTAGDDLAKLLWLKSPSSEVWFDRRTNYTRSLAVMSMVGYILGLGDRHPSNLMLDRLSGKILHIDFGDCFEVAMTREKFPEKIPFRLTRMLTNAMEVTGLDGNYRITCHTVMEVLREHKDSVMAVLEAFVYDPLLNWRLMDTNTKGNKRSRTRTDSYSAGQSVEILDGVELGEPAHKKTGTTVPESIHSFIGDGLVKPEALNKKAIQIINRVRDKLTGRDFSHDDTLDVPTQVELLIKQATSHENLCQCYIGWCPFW

| Compound | pIC50 (Human mTOR (FLAG-TOR)) | pIC50 [1] | pIC50 [2] | pIC50 (PI3K-α) | pIC50 (PI3K-γ) | also measured |
| --- | --- | --- | --- | --- | --- | --- |
| Cc1nc(-c2ccc(NC(=O)Nc3ccncc3)cc2)nc(N2CCOCC2)n1 [Example 161, 1-[4-(4-methyl-6-morpholin-4-yl-1,3,5-triazin-2-yl)phenyl]-3-pyridin-4-ylurea] | 7.52 | 6.48 | 6.17 | 7.41 | 6.81 | – |
| CN1CCN(C(=O)c2ccc(NC(=O)Nc3ccc(-c4nc(C5=CCOCC5)nc(N5CCOCC5)n4)cc3)cc2)CC1 [Example 163, 1-{4-[4-(3,6-dihydro-2H-pyran-4-yl)-6-morpholin-4-yl-1,3,5-triazin-2-yl]phenyl}-3-{4-[(4-methylpiperazin-1-yl)carbonyl]phenyl}urea] | 8.41 and 8.49 | 7.97 | 7.55 | 8.70 | 8.05 | pIC50 ([1]; MDA-MB-361 cells): 7.97; pIC50 ([2]; PC3-mm2 cells): 7.55; pIC50 (PI3K-α; listed as 507): 8.80; pIC50 (PI3K-γ; listed as 507): 8.06 |
| Cc1nc(-c2ccc(NC(=O)Nc3ccc(C(=O)N(C)CCN(C)C)cc3)cc2)nc(N2CCOCC2)n1 [Example 165, N-[2-(dimethylamino)ethyl]-N-methyl-4-({[4-(4-methyl-6-morpholin-4-yl-1,3,5-triazin-2-yl)phenyl]carbamoyl}amino)benzamide] | 7.55 | 6.68 | 6.48 | 8.05 | 7.00 | – |
| Cc1nc(-c2ccc(NC(=O)Nc3ccc(C(=O)N4CCN(C)CC4)cc3)cc2)nc(N2CCOCC2)n1 [Example 166, 1-[4-(4-methyl-6-morpholin-4-yl-1,3,5-triazin-2-yl)phenyl]-3-{4-[(4-methylpiperazin-1-yl)carbonyl]phenyl}urea] | 7.22 | 6.87 | 6.60 | 8.40 | 7.48 | – |
| CCCCc1nc(-c2ccc(NC(=O)Nc3ccc(C(=O)O)cc3)cc2)nc(N2CCOCC2)n1 [Example 184, 4-({[4-(4-butyl-6-morpholin-4-yl-1,3,5-triazin-2-yl)phenyl]carbamoyl}amino)benzoic acid] | 8.40 | 5.90 | 5.68 | 7.52 | 6.84 | – |
| CCCCc1nc(-c2ccc(NC(=O)Nc3ccncc3)cc2)nc(N2CCOCC2)n1 [Example 186, 1-[4-(4-butyl-6-morpholin-4-yl-1,3,5-triazin-2-yl)phenyl]-3-pyridin-4-ylurea] | 8.22 | 6.33 | 6.15 | 7.55 | 6.66 | – |
| O=C(Nc1ccncc1)Nc1ccc(-c2nc(N3CCOCC3)nc(N3C[C@@H]4C[C@H]3CO4)n2)cc1 [Example 189, 1-(4-{4-morpholin-4-yl-6-[(1S,4S)-2-oxa-5-azabicyclo[2.2.1]hept-5-yl]-1,3,5-triazin-2-yl}phenyl)-3-pyridin-4-ylurea] | 7.55 | 7.08 | 7.00 | 7.72 | 6.69 | – |
| C=C(OCC)c1nc(-c2ccc(NC(=O)Nc3ccncc3)cc2)nc(N2CCOCC2)n1 [Example 199, 1-{4-[4-(1-ethoxyvinyl)-6-morpholin-4-yl-1,3,5-triazin-2-yl]phenyl}-3-pyridin-4-ylurea] | 9.00 | 7.02 | 7.03 | 7.36 | 6.84 | – |
| COCCOc1nc(-c2ccc(NC(=O)Nc3ccncc3)cc2)nc(N2CCOCC2)n1 [Example 200, 1-{4-[4-(2-methoxyethoxy)-6-morpholin-4-yl-1,3,5-triazin-2-yl]phenyl}-3-pyridin-4-ylurea] | 8.19 | 6.79 | 6.61 | 7.85 | 6.89 | pIC50 ([2]; PC3-mm2 cells): 6.61; pIC50 (PI3K-α; listed as 714): 7.81; pIC50 (PI3K-γ; listed as 714): 7.16 |
| CC(=O)c1nc(-c2ccc(NC(=O)Nc3ccncc3)cc2)nc(N2CCOCC2)n1 [Example 209, 1-[4-(4-acetyl-6-morpholin-4-yl-1,3,5-triazin-2-yl)phenyl]-3-pyridin-4-ylurea] | 8.05 | 6.76 | 6.56 | 7.62 | 7.00 | – |
| COCCOc1nc(-c2ccc(NC(=O)Nc3ccc(C(=O)OC)cc3)cc2)nc(N2CCOCC2)n1 [Example 211, methyl 4-[({4-[4-(2-methoxyethoxy)-6-morpholin-4-yl-1,3,5-triazin-2-yl]phenyl}carbamoyl)amino]benzoate] | 8.22 | 6.60 | 6.41 | 7.10 | 6.97 | pIC50 ([2]; PC3-mm2 cells): 6.41; pIC50 (PI3K-α; listed as 715): 7.23; pIC50 (PI3K-γ; listed as 715): 6.83 |
| O=C(Nc1ccc(C(=O)O)cc1)Nc1ccc(-c2nc(C3=CCOCC3)nc(N3CCOCC3)n2)cc1 [Example 227, 4-[({4-[4-(3,6-dihydro-2H-pyran-4-yl)-6-morpholin-4-yl-1,3,5-triazin-2-yl]phenyl}carbamoyl)amino]benzoic acid] | 8.14 | 5.83 | 5.40 | 7.64 | 7.09 | – |
| O=C(Nc1ccncc1)Nc1ccc(-c2nc(CCNc3ccncc3)nc(N3CCOCC3)n2)cc1 [Example 228, 1-(4-{4-morpholin-4-yl-6-[2-(pyridin-4-ylamino)ethyl]-1,3,5-triazin-2-yl}phenyl)-3-pyridin-4-ylurea] | 7.29 and 7.26 | 5.41 | 5.14 | 7.34 | 6.55 | pIC50 ([2]; PC3-mm2 cells): 5.14; pIC50 (PI3K-α; listed as 718): 7.39; pIC50 (PI3K-γ; listed as 718): 6.68 |
| CC(=O)c1ccc(NC(=O)Nc2ccc(-c3nc(N4CCOCC4)nc(N4C5CCC4COC5)n3)cc2)cc1 [Example 230, 1-(4-acetylphenyl)-3-{4-[4-morpholin-4-yl-6-(3-oxa-8-azabicyclo[3.2.1]oct-8-yl)-1,3,5-triazin-2-yl]phenyl}urea] | 8.92 and 9.82 | – | – | 7.66 | 6.92 | pIC50 ([1]; MDA-MB-361 cells): > 7.51; pIC50 ([2]; PC3-mm2 cells): > 7.51; pIC50 (PI3K-α; listed as 719): 7.76; pIC50 (PI3K-γ; listed as 719): 7.02 |
| CCCCc1nc(-c2ccc(NC(=O)Nc3ccc(C(=O)NCCN(C)C)cc3)cc2)nc(N2CCOCC2)n1 [Example 231, 4-({[4-(4-butyl-6-morpholin-4-yl-1,3,5-triazin-2-yl)phenyl]carbamoyl}amino)-N-[2-(dimethylamino)ethyl]benzamide] | 8.60 | 7.70 | 6.92 | 8.40 | 7.20 | – |
| CCCCc1nc(-c2ccc(NC(=O)Nc3ccc(C(=O)N4CCN(C)CC4)cc3)cc2)nc(N2CCOCC2)n1 [Example 232, 1-[4-(4-butyl-6-morpholin-4-yl-1,3,5-triazin-2-yl)phenyl]-3-{4-[(4-methylpiperazin-1-yl)carbonyl]phenyl}urea] | 7.08 | 7.42 | 6.75 | 8.22 | 7.43 | – |
| CCc1nc(-c2ccc(NC(=O)Nc3ccc(C(=O)O)cc3)cc2)nc(N2CCOCC2)n1 [Example 233, 4-({[4-(4-ethyl-6-morpholin-4-yl-1,3,5-triazin-2-yl)phenyl]carbamoyl}amino)benzoic acid] | 8.10 | 5.92 | 5.48 | 7.26 | 6.92 | – |
| CCc1nc(-c2ccc(NC(=O)Nc3ccc(C(=O)N4CCN(C)CC4)cc3)cc2)nc(N2CCOCC2)n1 [Example 236, 1-[4-(4-ethyl-6-morpholin-4-yl-1,3,5-triazin-2-yl)phenyl]-3-{4-[(4-methylpiperazin-1-yl)carbonyl]phenyl}urea] | 7.96 and 8.03 | 7.65 | 7.17 | 8.52 | 7.82 | pIC50 ([1]; MDA-MB-361 cells): 7.65; pIC50 ([2]; PC3-mm2 cells): 7.17; pIC50 (PI3K-α; listed as 536): 8.82; pIC50 (PI3K-γ; listed as 536): 7.89 |
| CCc1nc(-c2ccc(NC(=O)Nc3ccc(C(=O)NCCN(C)C)cc3)cc2)nc(N2CCOCC2)n1 [Example 237, N-[2-(dimethylamino)ethyl]-4-({[4-(4-ethyl-6-morpholin-4-yl-1,3,5-triazin-2-yl)phenyl]carbamoyl}amino)benzamide] | 8.52 | 7.55 | 7.16 | 8.70 | 7.64 | – |
| CCc1nc(-c2ccc(NC(=O)Nc3ccc(C(=O)N4CCC(N(C)C)CC4)cc3)cc2)nc(N2CCOCC2)n1 [Example 238, 1-(4-{[4-(dimethylamino)piperidin-1-yl]carbonyl}phenyl)-3-[4-(4-ethyl-6-morpholin-4-yl-1,3,5-triazin-2-yl)phenyl]urea] | 8.44 | 7.64 | 7.21 | 9.00 | 8.00 | – |
| CCCCc1nc(-c2ccc(NC(=O)Nc3ccc(CO)cc3)cc2)nc(N2CCOCC2)n1 [Example 239, 1-[4-(4-butyl-6-morpholin-4-yl-1,3,5-triazin-2-yl)phenyl]-3-[4-(hydroxymethyl)phenyl]urea] | 8.49 | 6.74 | 6.50 | 7.96 | 7.42 | – |
